Results on 27 compounds are retold here after patent publication US10106556B2, “Heterocyclic compound” (TAKEDA PHARMACEUTICAL COMPANY LIMITED, priority 2015, dated 2018).

Structures are written as SMILES.

This assay addresses T1, His-hMAGL (recombinant polyhistidine tagged human MAGL protein) (Homo sapiens, UniProt Q99685).
T1 construct: made in house; host or cells: E. coli BL21(DE3)
T1 sequence (Q99685 1-303): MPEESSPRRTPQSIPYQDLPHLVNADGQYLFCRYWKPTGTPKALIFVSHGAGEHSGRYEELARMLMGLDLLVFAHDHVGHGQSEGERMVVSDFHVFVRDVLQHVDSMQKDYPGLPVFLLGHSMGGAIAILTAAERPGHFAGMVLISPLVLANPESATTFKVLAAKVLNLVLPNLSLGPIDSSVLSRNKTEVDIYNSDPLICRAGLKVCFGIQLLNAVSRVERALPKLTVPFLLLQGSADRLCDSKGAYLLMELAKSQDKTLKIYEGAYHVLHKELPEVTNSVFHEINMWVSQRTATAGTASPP
As to the kind of experiment: Measurement of MAGL inhibitory activity (arachidonic acid production from 2-arachidonylglycerol, RapidFire-mass spectrometry). It is filed as biochemical. The conditions noted are these: MAGL inhibitory rate at 10 μM test compound; 60 min preincubation with His-hMAGL, 2-arachidonylglycerol substrate, 10 min reaction at room temperature. The method, then:
Furthermore, acetonitrile (50 μL) containing 3 μM arachidonic acid-d8 (Cayman Chemical Company) was added and the mixture was stirred.
The amount of arachidonic acid in the obtained enzyme reaction mixture was calculated by measuring by RapidFire-mass spectrometry and correcting by the amount of arachidonic acid-d8. High Throughput online solid phase extraction was performed using RapidFire 300™ system (Agilent Technologies, Inc.). Samples were loaded on SPE C4 cartridge (Agilent Technologies, Inc.) and desalted with 0.2 (v/v) % acetic acid (Wako Pure Chemical Industries, Ltd.) in ultrapure water/acetonitrile (70/30, v/v) at a flow rate of 1.5 mL/min, eluted at a flow rate of 0.5 mL/min with 0.2 (v/v) % acetic acid dissolved in acetonitrile/ultrapure water (90/10, v/v), and injected into the mass spectrometry part. The injection needle was washed with ultrapure water (500 millisecond) and acetonitrile (500 millisecond) to minimize carry-over. […] The RapidFire300 system was controlled by RapidFire UI software version 3.6 (Agilent Technologies, Inc.).
The mass spectrometry of the resultant product was performed using API4000™ triple quadrupole mass spectrometer (AB SCIEX) equipped with an electrospray ion sauce (TurboIon Spray™) in a negative selected reaction monitoring (SRM) mode. The conditions of SRM are shown below. The parameters of the instrument were optimized as follows: capillary temperature 600° C., ion spray voltage −4.5 kV, collision gas 8, curtain gas 15 psi, ion source gas 1 60 psi, ion source gas 2 60 psi. The mass spectrometer was controlled by Analyst™ software version 1.5.1 (AB SCIEX). The peak area integration was analyzed using RapidFire integrator software version 3.6 (Agilent Technologies, Inc.).
MAGL inhibitory rate (%) was calculated according to the following calculation formula. (1−(arachidonic acid production amount of test compound addition group−arachidonic acid production amount of enzyme−free group)÷(arachidonic acid production amount of test compound-free group−arachidonic acid production amount of enzyme-free group))×100
Broadly, the inhibition is the drop in the measured response relative to a control, in per cent. On to `N#Cc1cccc(OCC2CCN(C(=O)c3cc4c(cc3F)OCC(=O)N4)CC2)c1Cl` [Example 75, 2-chloro-3-((1-((7-fluoro-3-oxo-3,4-dihydro-2H-1,4-benzoxazin-6-yl)carbonyl)piperidin-4-yl)methoxy)benzonitrile], for which the inhibition at 10 µM amounted to 102%.
In the case of `O=C1COc2cc(F)c(C(=O)N3CC(COc4ccc(Cl)cc4Cl)C3)cc2N1` [Example 76, 6-((3-((2,4-dichlorophenoxy)methyl)azetidin-1-yl)carbonyl)-7-fluoro-2H-1,4-benzoxazin-3(4H)-one], the inhibition at 10 µM was found to be 105%.
The value for `O=C1COc2cc(F)c(C(=O)N3CC(COc4ccc(F)cc4Cl)C3)cc2N1` [Example 77, 6-((3-((2-chloro-4-fluorophenoxy)methyl)azetidin-1-yl)carbonyl)-7-fluoro-2H-1,4-benzoxazin-3(4H)-one] was 105%.
The value for `O=C1COc2ccc(C(=O)N3CC(COc4ccc(F)cc4Cl)C3)cc2N1` [Example 78, 6-((3-((2-chloro-4-fluorophenoxy)methyl)azetidin-1-yl)carbonyl)-2H-1,4-benzoxazin-3(4H)-one] was 100%.
The value for `O=C(c1ccc2ccc(=O)[nH]c2c1)N1CCC(COc2ccc(F)cc2Cl)CC1` [Example 79, 7-((4-((2-chloro-4-fluorophenoxy)methyl)piperidin-1-yl)carbonyl)quinolin-2(1H)-one] was 103%; that for `O=C1COc2cc(F)c(C(=O)N3CCC(COC4CCCCC4)CC3)cc2N1` [Example 80, 6-((4-((cyclohexyloxy)methyl)piperidin-1-yl)carbonyl)-7-fluoro-2H-1,4-benzoxazin-3(4H)-one] was 100%; that for `N#CC1(COc2ccc(F)cc2Cl)CCN(C(=O)c2cc3c(cc2F)OCC(=O)N3)CC1` [Example 81, 4-((2-chloro-4-fluorophenoxy)methyl)-1-((7-fluoro-3-oxo-3,4-dihydro-2H-1,4-benzoxazin-6-yl)carbonyl)piperidine-4-carbonitrile] was 99%.
As for `C=C(C)c1ccc(OCC2CCN(C(=O)c3cc4c(cc3F)OCC(=O)N4)CC2)c(Cl)c1` [Example 82, 6-((4-((2-chloro-4-(prop-1-en-2-yl)phenoxy)methyl)piperidin-1-yl)carbonyl)-7-fluoro-2H-1,4-benzoxazin-3(4H)-one], the inhibition at 10 µM stood at 101%.
The value for `O=C1COc2cc(F)c(C(=O)N3CCC(COC4CCOCC4)CC3)cc2N1` [Example 83, 7-fluoro-6-((4-((tetrahydro-2H-pyran-4-yloxy)methyl)piperidin-1-yl)carbonyl)-2H-1,4-benzoxazin-3(4H)-one] was 86%; that for `COC(=O)c1ccc(OCC2CCN(C(=O)c3cc4c(cc3F)OCC(=O)N4)CC2)c(Cl)c1` [Example 84, methyl-3-chloro-4-((1-((7-fluoro-3-oxo-3,4-dihydro-2H-1,4-benzoxazin-6-yl)carbony)piperidin-4-yl)methoxy)benzoate] was 97%; that for `COC(=O)c1cc(F)ccc1OCC1CCN(C(=O)c2cc3c(cc2F)OCC(=O)N3)CC1` [Example 85, methyl 5-fluoro-2-((1-((7-fluoro-3-oxo-3,4-dihydro-2H-1,4-benzoxazin-6-yl)carbonyl)piperidin-4-yl)methoxy)benzoate] was 102%.
With `O=C1COc2cc(Cl)c(C(=O)N3CCC(COc4ccc(F)cc4Cl)CC3)cc2N1` [Example 86, 7-chloro-6-((4-((2-chloro-4-fluorophenoxy)methyl)piperidin-1-yl)carbonyl)-2H-1,4-benzoxazin-3(4H)-one] the figure was 98%.
With `O=C1COc2cc(Cl)c(C(=O)N3CC(COc4ccc(F)cc4Cl)C3)cc2N1` [Example 87, 7-chloro-6-((3-((2-chloro-4-fluorophenoxy)methyl)azetidin-1-yl)carbonyl)-2H-1,4-benzoxazin-3(4H)-one], the inhibition at 10 µM came out at 102%.
With `Cc1cc2c(cc1C(=O)N1CC(COc3ccc(F)cc3Cl)C1)NC(=O)CO2` [Example 88, 6-((3-((2-chloro-4-fluorophenoxy)methyl)azetidin-1-yl)carbonyl)-7-methyl-2H-1,4-benzoxazin-3 (4H)-one] the figure was 96%.
As for `Cc1cc2c(cc1C(=O)N1CCC(COc3ccc(F)cc3Cl)CC1)NC(=O)CO2` [Example 89, 6-((4-((2-chloro-4-fluorophenoxy)methyl)piperidin-1-yl)carbonyl)-7-methyl-2H-1,4-benzoxazin-3(4H)-one], the inhibition at 10 µM worked out at 90%.
With `CC(C)(O)c1ccc(OCC2CCN(C(=O)c3cc4c(cc3F)OCC(=O)N4)CC2)c(Cl)c1` [Example 90, 6-((4-((2-chloro-4-(2-hydroxypropan-2-yl)phenoxy)methyl)piperidin-1-yl)carbonyl)-7-fluoro-2H-1,4-benzoxazin-3(4H)-one] the figure was 98%; with `CC(C)(O)c1cc(F)ccc1OCC1CCN(C(=O)c2cc3c(cc2F)OCC(=O)N3)CC1` [Example 91, 7-fluoro-6-((4-((4-fluoro-2-(2-hydroxypropan-2-yl)phenoxy)methyl)piperidin-1-yl)carbonyl)-2H-1,4-benzoxazin-3(4H)-one], 99%; with `N#Cc1ccc(OCC2CN(C(=O)c3cc4c(cc3F)OCC(=O)N4)C2)c(Cl)c1` [Example 92, 3-chloro-4-((1-((7-fluoro-3-oxo-3,4-dihydro-2H-1,4-benzoxazin-6-yl)carbonyl)azetidin-3-yl)methoxy)benzonitrile], 99%.
The value for `O=C1COc2ccc(C(=O)N3CCC(COc4ccccc4F)CC3)cc2N1` [Example 94, 6-((4-((2-fluorophenoxy)methyl)piperidin-1-yl)carbonyl)-2H-1,4-benzoxazin-3(4H)-one] was 97%; that for `O=C1COc2cc(F)c(C(=O)N3CCC(COC4CCC(F)(F)CC4)CC3)cc2N1` [Example 95, 6-((4-(((4,4-difluorocyclohexyl)oxy)methyl)piperidin-1-yl)carbonyl)-7-fluoro-2H-1,4-benzoxazin-3(4H)-one] was 97%; that for `O=C1COc2cc(F)c(C(=O)N3CC(F)(COc4ccc(F)cc4Cl)C3)cc2N1` [Example 96, 6-((3-((2-chloro-4-fluorophenoxy)methyl)-3-fluoroazetidin-1-yl)carbonyl)-7-fluoro-2H-1,4-benzoxazin-3(4H)-one] was 100%.
With `COc1cc2c(cc1C(=O)N1CCC(COc3ccc(F)cc3Cl)CC1)NC(=O)CO2` [Example 97, 6-((4-((2-chloro-4-fluorophenoxy)methyl)piperidin-1-yl)carbonyl)-7-methoxy-2H-1,4-benzoxazin-3(4H)-one] the figure was 100%; with `COc1cc2c(cc1C(=O)N1CC(COc3ccc(F)cc3Cl)C1)NC(=O)CO2` [Example 98, 6-((3-((2-chloro-4-fluorophenoxy)methyl)azetidin-1-yl)carbonyl)-7-methoxy-2H-1,4-benzoxazin-3(4H)-one], 99%; with `O=C1COc2cc(F)c(C(=O)N3CCC(COc4ccc(F)cc4Br)CC3)cc2N1` [Example 99, 6-((4-((2-bromo-4-fluorophenoxy)methyl)piperidin-1-yl)carbonyl)-7-fluoro-2H-1,4-benzoxazin-3(4H)-one], 99%.
Turning to `O=C1COc2cc(F)c(C(=O)N3CCC(COc4ccc(F)cc4-c4ccccc4)CC3)cc2N1` [Example 100, 7-fluoro-6-((4-(((5-fluorobiphenyl-2-yl)oxy)methyl)piperidin-1-yl)carbonyl)-2H-1,4-benzoxazin-3(4H)-one], the inhibition at 10 µM was 98%.
In the case of `O=C(c1cc2[nH]c(=O)oc2cc1F)N1CCC(COc2ccc(F)cc2Cl)CC1` [Example 101, 5-((4-((2-chloro-4-fluorophenoxy)methyl)piperidin-1-yl)carbonyl)-6-fluoro-1,3-benzoxazol-2(3H)-one], the inhibition at 10 µM amounted to 99%.
The value for `O=C1COc2cc(F)c(C(=O)N3CC(COc4ccc5c(c4)CCCC5)C3)cc2N1` [Example 102, 7-fluoro-6-((3-((5,6,7,8-tetrahydronaphthalen-2-yloxy)methyl)azetidin-1-yl)carbonyl)-2H-1,4-benzoxazin-3(4H)-one] was 102%.
